Test results as given in patent EP0496162A2, “Peptide inhibitors of RAS-GAP interaction” (MERCK & CO. INC., priority 1990, dated 1992).
No end group written: not given here.

Target: T1, Ras-GAP interaction (Bos taurus, UniProt P09851)
T1 construct: made in house; host or cells: GAP: E. coli JM109 (plasmid pYO); Ha-Ras: E. coli RRllaci^q (plasmid pRas[Gly12 Ala59])
T1 sequence (P09851 1-1044): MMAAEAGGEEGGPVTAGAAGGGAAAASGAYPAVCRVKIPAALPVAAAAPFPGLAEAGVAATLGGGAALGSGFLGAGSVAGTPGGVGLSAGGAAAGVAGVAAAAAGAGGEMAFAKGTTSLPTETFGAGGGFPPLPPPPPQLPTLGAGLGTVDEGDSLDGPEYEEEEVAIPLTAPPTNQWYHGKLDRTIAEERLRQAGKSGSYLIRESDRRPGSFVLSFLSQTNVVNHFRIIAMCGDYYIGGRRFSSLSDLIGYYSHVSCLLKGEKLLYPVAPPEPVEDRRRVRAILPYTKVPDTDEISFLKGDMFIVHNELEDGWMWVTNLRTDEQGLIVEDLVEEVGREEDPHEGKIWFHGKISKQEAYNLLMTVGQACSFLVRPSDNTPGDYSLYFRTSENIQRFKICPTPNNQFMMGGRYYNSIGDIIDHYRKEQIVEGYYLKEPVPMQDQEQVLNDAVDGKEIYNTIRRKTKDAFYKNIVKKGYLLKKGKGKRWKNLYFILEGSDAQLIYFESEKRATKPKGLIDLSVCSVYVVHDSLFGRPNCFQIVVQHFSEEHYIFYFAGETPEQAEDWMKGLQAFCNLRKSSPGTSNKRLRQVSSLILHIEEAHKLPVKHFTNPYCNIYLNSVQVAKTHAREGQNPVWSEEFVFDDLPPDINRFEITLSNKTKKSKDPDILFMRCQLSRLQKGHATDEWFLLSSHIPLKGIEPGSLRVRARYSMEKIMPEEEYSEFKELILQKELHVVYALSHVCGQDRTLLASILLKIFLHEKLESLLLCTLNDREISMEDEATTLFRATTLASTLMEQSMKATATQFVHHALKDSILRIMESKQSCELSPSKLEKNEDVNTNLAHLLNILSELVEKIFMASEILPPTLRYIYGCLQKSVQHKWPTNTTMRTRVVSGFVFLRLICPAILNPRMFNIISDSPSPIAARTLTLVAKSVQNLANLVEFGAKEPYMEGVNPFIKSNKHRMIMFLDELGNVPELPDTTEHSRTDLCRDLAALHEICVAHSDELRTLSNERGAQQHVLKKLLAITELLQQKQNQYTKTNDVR
Assay: Ras-GAP interaction inhibition assay (GAP-stimulated Ras GTPase, charcoal adsorption)
Type: biochemical, bovine
Settings: concentration of peptide required to reduce GAP stimulated Ras-GTP hydrolysis by 50%; 10 fmol GAP, 240 fmol Ha ras p21-GTP, 4 minutes at 24°C
Protocol: The activity of the synthetic peptides of the present invention, as inhibitors of the interaction of ras with GAP was determined in an assay which measures GAP dependent, Ras GTPase activity. Bovine GAP was either purified from fresh bovine brains or recombinantly produced in E. coli. It is understood that the methods of the present invention may utilize either the recombinant full length GAP or the bovine brain derived GAP. In addition, GAP from other species, such as human and mouse, may be substituted for bovine GAP since they share about 95% amino acid homology. Truncated recombinant forms of GAP are also suitable for use in the Ras-GAP interaction assay [Marshall, M.S., et al., (1989), EMBO J., 8, pp1105-1110]. However, for the screening of synthetic peptides for their ability to block the Ras-GAP interaction, the recombinant, full length GAP is preferred.
The Ras protein utilized in the Ras-GAP GTPase assay of the present invention is Harvey ras (Ha-ras). It is understood that other forms of Ras protein are suitable for use in the present invention. Other suitable forms of Ras protein include, but are not limited to, Kirsten Ras, yeast S. cerevisiae RAS, and N-Ras. Furthermore, it is readily apparent to those skilled in the art that any form of Ras protein which is capable of interacting with GAP is suitable for use in the Ras-GAP GTPase assay.
Ras GTPase activity was measured by the charcoal adsorption procedure. Each 50 µL reaction contained 10 fmol purified GAP, 240 fmol Ha ras p21-[γ ³²P] GTP and 1 mg/mL BSA in buffer D. Varying amounts of the competing peptides were added as indicated. Prewarmed reactions (24°C) were initiated by the addition of GAP, then incubated for 4 minutes at 24°C. The reactions were terminated by the addition of 5 volumes of ice cold 5% activated charcoal (Sigma: HCl washed) in 50 mM NaH₂PO₄. GTPase activity was quantitated by measuring the free ³²P-orthophosphate in the cleared supernatant after centrifugation of the charcoal mix. GAP-stimulated Ras GTPase activity in the absence of competitors was 40-60 fmol Ras-GTP hydrolyzed; the 100% control value. In the absence of GAP, GTP hydrolysis was not detectable during the incubation period of the assay. Inhibitors of this assay block GAP-stimulated Ras GTPase without impairing intrinsic Ras GTPase, assayed in the absence of GAP following incubation at 24°C for one hour.
Ras peptides were dissolved in either 100% dimethyl formamide (DMF, American Burdick and Jackson) or 100% dimethyl sulfoxide (DMSO, Fluka UV-spectroscopy grade) at a calculated peptide concentration of 1-4 mM. Following 1 minute in a Sonicor SC-200 bath sonicator at room temperature, the peptide solutions were vortexed, and then centrifuged for 5 minutes at room temperature in an Eppendorf microfuge to remove any undissolved material. 20 µL of the cleared peptide solutions were then added to 80 µL of Buffer D in a dilution series covering a range of peptide concentrations from 0.02 µM up to the maximum solubility limit for each peptide. In each dilution, the solvent concentration was maintained at 20%. These peptides solutions were then centrifuged for 5 minutes at room temperature at 10,000 x g, and the cleared supernatants were divided into 2 parts. One part of each cleared peptide dilution was used in a GAP competition assay: 40 µL was added to a 5 µL solution containing 0.1 mg/mL BSA plus 240 fmol Ha-ras p21-[γ-³²P]GTP. Reactions were initiated upon addition of 5 µL of diluted GAP (10 fmol), and analyzed as described above.

Compound	IC50	IC50*
CC[C@H](C)[C@H](NC(=O)[C@H](CC(C)C)NC(=O)[C@H](CCC(N)=O)NC(=O)[C@@H](NC(=O)[C@@H](NC(=O)[C@H](CC(C)C)NC(=O)[C@H](C)NC(=O)[C@@H](N)CO)[C@@H](C)O)[C@@H](C)CC)C(=O)N[C@@H](CCC(N)=O)C(=O)N[C@@H](CC(N)=O)C(=O)N[C@@H](Cc1c[nH]cn1)C(=O)N[C@@H](Cc1ccccc1)C(=O)N[C@H](C(=O)N[C@@H](CC(=O)O)C(=O)N[C@@H](CCC(=O)O)C(=O)N[C@@H](Cc1ccc(O)cc1)C(=O)O)C(C)C [Ras 17-32]	900 nM	
LIQNHFVDEYDPTIE [Ras 23-37]		no inhibition
SALTIQLIQNHFVDEYDPTIE [Ras 17-37]	3600 nM	
